Source: article PMC6562704, “Antihypertensive Effect in Vivo of QAGLSPVR and Its Transepithelial Transport Through the Caco-2 Cell Monolayer” (Marine Drugs, 2019)
Ends that are not written are not given here.

Columns and labels:
[1] = biological target: angiotensin-I-converting enzyme (ACE); conditions: in vitro; read-out: IC50 for ACEI activity in vitro; cited from earlier work
Description: In our previous studies, enzymatic hydrolysates of tilapia skin gelatin were obtained using simulated gastrointestinal digestion. The hydrolysates were isolated and purified, and QAGLSPVR was obtained by successive chromatography of the gelatin hydrolysates. […] The present study aims to confirm the in vivo antihypertensive effect of QAGLSPVR by using the SHR model. […] Bioactive peptides are exposed through systemic circulation in human tissues. Unfortunately, bioactive peptides may be hydrolyzed before they reach the target tissues during passage through and absorption by the small intestine. […] For example, FKGRYYP was identified from ch ...

SHRs = conditions: cited from earlier work
Description: Bioactive peptides are exposed through systemic circulation in human tissues. Unfortunately, bioactive peptides may be hydrolyzed before they reach the target tissues during passage through and absorption by the small intestine. […] For example, FKGRYYP was identified from ch ...

Caco-2 cell monolayer [2] = experiment: Transepithelial transport through the Caco-2 cell monolayer; type: in vitro ADME, human
Protocol: Caco-2 cells (1 × 10^5 cells/well) were routinely cultured in Dublecco’s modified Eagle’s medium with 15% FBS, […] streptomycin and 100 U/mL penicillin. Caco-2 cell monolayer was cultured in six-well Transwell plastic plates in a humidified incubator with 5% CO2 at 37 °C and Caco-2 cell monolayer can be used to perform transport experiments when the transepithelial resistance is higher than 400 Ω/cm^2 [29]. The Caco-2 cell culture medium was substituted with Hank’s balanced salt solution (HBSS) buffer (preheated at 37 °C for 30 min) prior to the transport experiment. The cell monolayer was cultured in HBSS buffer and maintained at 37 °C for 2 h. QAGLSPVR (2 mg/mL, 1.5 mL, dissolved in HBSS) was added to the AP of the cell monolayer, while HBSS buffer (2.5 mL) was added to the BL. The Caco-2 cell monolayer was cultured for 0.5, 1, or 2 h in an incubator at 37 °C. The AP and BL fractions were collected at different times. QAGLSPVR concentrations in the BL were detected by UPLC-Q-Orbitrap-MS^2 analysis according to our previous method, and the transport percentages of QAGLSPVR at different times were calculated.
The transport patterns of QAGLSPVR through the Caco-2 cell monolayer were studied using different transport inhibitors and enhancers. In brief, Gly-Sar, wortmannin, and cytochalasin D were dissolved in DMSO (final concentration of DMSO in HBSS = 0.05%) and final concentrations of25 mM, 500 nM, and 0.5 μg/mL, respectively. The Caco-2 cell monolayer was pre-incubated with Gly-Sar (a peptide transporter PepT1 substrate), wortmannin (atranscytosis inhibitor), or cytochalasin D (a TJ disruptor)for 30 min followed by addition of 1.5 mL of 2 mg/mL QAGLSPVR to the AP and 2.5 mL of fresh HBSS to the BL. After 2 h of incubation, the QAGLSPVR content in the BL was determined via UPLC-Q-Orbitrap-MS^2 analysis according to our previous method, and transport percentages were calculated.

Caco-2 cell monolayer [3] = conditions: cited from earlier work
Protocol: QAGLSPVR was proven to produce a clear antihypertensive effect on SHRs in this study. To validate whether QAGLSPVR could be completely absorbed to regulate blood pressure, the transport percentage of QAGLSPVR was evaluated via the Caco-2 cell monolayer model. Caco-2 cells can be used as an in vitro model of the human intestinal epithelium due to the various brush border membrane enzymes characterizing these cells. At least eight membrane enzymes are expressed by Caco-2 cells. The brush border membrane enzymes are membrane peptidases and can hydrolyze peptides into short fragments prior ...

Substance: FKGRYYP [peptide identified from chicken muscle hydrolysates]
- IC50 [1]: 550 µM
- antihypertensive activity after oral administration to SHRs (in words) (SHRs): no antihypertensive activity

Substance: QAGLSPVR [QAGLSPVR]
- effect of cytochalasin D on QAGLSPVR transport (in words) (Caco-2 cell monolayer [2]; Caco-2, AP to BL, 30 min pre-incubation with 0.5 μg/mL cytochalasin D (TJ disruptor), 2 mg/mL peptide, HBSS, 2 h, UPLC-Q-Orbitrap-MS^2, p < 0.05): significantly increased
- effect of wortmannin on QAGLSPVR transport (in words) (Caco-2 cell monolayer [2]; Caco-2, AP to BL, 30 min pre-incubation with 500 nM wortmannin (transcytosis inhibitor), 2 mg/mL peptide, HBSS, 2 h, UPLC-Q-Orbitrap-MS^2, p > 0.05): did not significantly affect
- effect of Gly-Sar on QAGLSPVR transport (in words) (Caco-2 cell monolayer [2]; Caco-2, AP to BL, 30 min pre-incubation with 25 mM Gly-Sar (PepT1 substrate), 2 mg/mL peptide, HBSS, 2 h, UPLC-Q-Orbitrap-MS^2, p > 0.05): no significant effect
- integrity on transport through the Caco-2 cell monolayer (in words) (Caco-2 cell monolayer [2]; Caco-2 monolayer, AP to BL, HBSS, 2 mg/mL, 37 °C, 0.5-2 h, UPLC-Q-Orbitrap-MS^2): transported intact
- transport percentage (Caco-2 cell monolayer [2]; Caco-2 monolayer, AP to BL, six-well Transwell, transepithelial resistance > 400 Ω/cm^2, HBSS, 2 mg/mL peptide (1.5 mL) in AP, 2.5 mL HBSS in BL, 37 °C, 2 h, UPLC-Q-Orbitrap-MS^2, mean ± SD): 3.5%

Substance: QIGLF
- absorption through the Caco-2 cell monolayer (in words) (Caco-2 cell monolayer [3]): absorbed intact

Substance: RKQLQGVN
- absorption through the Caco-2 cell monolayer (in words) (Caco-2 cell monolayer [3]): absorbed intact

Substance: TNGIIR
- absorption through the Caco-2 cell monolayer (in words) (Caco-2 cell monolayer [3]): absorbed intact

Substance: YLGYLEQ
- absorption through the Caco-2 cell monolayer (in words) (Caco-2 cell monolayer [3]): absorbed intact
